Columns and labels:
[1] = tested on: PolySeed® BOD Seed Inoculum (blend of broad spectrum bacteria); assay: Durability test (bacteria spiked regularly on treated agar plate, swab viable count); format: cell-based; details: bacteria solution spiked every 60 minutes
Procedure: To evaluate the durability of bacteria inhibition of the exemplary compositions, durability test by regularly spiking a fixed amount of bacteria into the sample is performed and the procedures are incorporated herein by reference.
• Group A: Agar plate with 0.5 mL distilled water; • Group B: Agar plate with 0.5 mL 75% isopropyl alcohol (IPA); • Group C: Agar plate with 0.5 g of tested exemplary composition.
Bacteria strain used: PolySeed® BOD Seed Inoculum Capsules (1 caspsule dissolved into 500 mL Distilled Water) (Interlab), which contains a blend of broad spectrum bacteria designed specifically as a seed inoculum for the Biochemical Oxygen Demand (BOD 5) test as conducted in accordance to Standard Methods of the Examination of Water and Wastewater. PolySeed® is an EPA approved BOD 5 seed inoculum that has been used to seed both municipal and industrial wastes for almost 20 years.
Agar: Trypticase Soy Agar (TSA)
Incubation condition: 48 hours at 30±1° C.
The above three sample group agar plates are used as the sample matrices of different initial situation for spiking 0.5 ml bacteria solution for every 60 minutes, i.e.: there was an on-going process of spiking bacteria at time 0, 60, 120, 180, 240, 300 minutes;
A swab testing is carried out every 30 minutes from matrix samples of each group to test for the viable count of bacteria at the time interval.
• AM: 0.5 ml bacteria solution is added at T0-10 min; • Sample A1: To swab from AM at T0; Sample A2: To swab from AM at T1; • AM: 0.5 ml bacteria solution is added at T2-10 min; • Sample A3: To swab from AM at T2; Sample A4: To swab from AM at T3; • AM: 0.5 ml bacteria solution is added at T4-10 min; and so forth. Table 2 summarized the testing schedule for durability test.

[2] = tested on: PolySeed® BOD Seed Inoculum; assay: Volatility test (duration of bacteria inhibition on treated agar plate); format: cell-based
Procedure: To study the duration on ability of bacteria inhibition of an exemplary composition, a volatility test is performed.
• Group A: Agar plate with 0.5 mL distilled water; • Group B: Agar plate with 0.5 mL 75% isopropyl alcohol (IPA); • Group C: Agar plate with 0.5 g of tested exemplary composition. Bacteria strain used: PolySeed® BOD Seed Inoculum Capsules (1 capsule dissolved into 500 mL Distilled Water) (Interlab) Agar: Trypticase Soy Agar (TSA) Incubation condition: 48 hours at 30±1° C. Testing Procedure 0.5 mL bacteria solution is add into the agar plate groups A, B and C at the time interval of Tx. as defined in Table 1.3.
After T10, bacteria solution is spiked to all the agar plates except agar blank.
Swab test is carried out to test for the viable count of bacteria at the time interval Tx.

CC(C)O [75% IPA, isopropyl alcohol]
CFU/plate ([1]; T0 (0 min)): 8 CFU/plate
CFU/plate ([1]; T1 (30 min)): 28 CFU/plate
CFU/plate ([1]; T2 (60 min)): 53 CFU/plate
CFU/plate ([1]; T3 (90 min)): 89 CFU/plate
CFU/plate ([1]; T4 (120 min)): 254 CFU/plate
CFU/plate ([1]; T5 (150 min)): 346 CFU/plate
CFU/plate ([1]; T6 (180 min)): Uncountable (the bacterial colonies are too numerous to be counted in the agar plate, e.g., more than 335 colonies per plate)
CFU/plate ([1]; T7 (210 min)): Uncountable (the bacterial colonies are too numerous to be counted in the agar plate, e.g., more than 335 colonies per plate)
CFU/plate ([1]; T8 (240 min)): Uncountable (the bacterial colonies are too numerous to be counted in the agar plate, e.g., more than 335 colonies per plate)
CFU/plate ([1]; T9 (270 min)): Uncountable (the bacterial colonies are too numerous to be counted in the agar plate, e.g., more than 335 colonies per plate)
CFU/plate ([1]; T10 (300 min)): Uncountable (the bacterial colonies are too numerous to be counted in the agar plate, e.g., more than 335 colonies per plate)
CFU/plate ([2]; T0 (0 min)): 54 CFU/plate
CFU/plate ([2]; T1 (30 min)): 62 CFU/plate
CFU/plate ([2]; T2 (60 min)): 50 CFU/plate
CFU/plate ([2]; T3 (90 min)): 45 CFU/plate
CFU/plate ([2]; T4 (120 min)): 49 CFU/plate
CFU/plate ([2]; T5 (150 min)): 55 CFU/plate
CFU/plate ([2]; T6 (180 min)): 43 CFU/plate
CFU/plate ([2]; T7 (210 min)): 37 CFU/plate
CFU/plate ([2]; T8 (240 min)): 44 CFU/plate
CFU/plate ([2]; T9 (270 min)): 49 CFU/plate
CFU/plate ([2]; T10 (300 min)): 0 CFU/plate
